Reference: PubChem BioAssay (NCI)
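Assay format: 96-well plates, 48-hour exposure. Abbreviation: GI50, concentration required for 50% inhibition of growth. At the TGI there is no net growth.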

Key:
Assay in all cases: NCI anticancer screen, dose series, 48 h
HS 578T breast = system: HS 578T breast
NCI-H226 lung = system: NCI-H226 lung
U251 CNS = system: U251 CNS
HCT-116 colon = system: HCT-116 colon
HCT-15 colon = system: HCT-15 colon
SF-295 CNS = system: SF-295 CNS
NCI/ADR-RES ovarian = system: NCI/ADR-RES ovarian
SNB-19 CNS = system: SNB-19 CNS
SK-MEL-28 melanoma = system: SK-MEL-28 melanoma
OVCAR-3 ovarian = system: OVCAR-3 ovarian
SW-620 colon = system: SW-620 colon
CCRF-CEM leukemia = system: CCRF-CEM leukemia
NCI-H23 lung = system: NCI-H23 lung
UACC-257 melanoma = system: UACC-257 melanoma
EKVX NSCLC = system: EKVX NSCLC
SK-OV-3 ovarian = system: SK-OV-3 ovarian
RPMI-8226 leukemia = system: RPMI-8226 leukemia
HL-60(TB) leukemia = system: HL-60(TB) leukemia
ACHN renal = system: ACHN renal
MALME-3M melanoma = system: MALME-3M melanoma
K-562 leukemia = system: K-562 leukemia
HT29 colon = system: HT29 colon
UACC-62 melanoma = system: UACC-62 melanoma
A549 NSCLC = system: A549 NSCLC
786-0 renal = system: 786-0 renal
MDA-MB-231 breast = system: MDA-MB-231 breast
SNB-75 CNS = system: SNB-75 CNS
HOP-92 NSCLC = system: HOP-92 NSCLC
RXF 393 renal = system: RXF 393 renal
MDA-MB-435 = system: MDA-MB-435
SF-268 CNS = system: SF-268 CNS
SF-539 CNS = system: SF-539 CNS
TK-10 renal = system: TK-10 renal
T-47D breast = system: T-47D breast
SK-MEL-2 melanoma = system: SK-MEL-2 melanoma
NCI-H460 lung = system: NCI-H460 lung
PC-3 prostate = system: PC-3 prostate
M14 melanoma = system: M14 melanoma
UO-31 renal = system: UO-31 renal
SR leukemia = system: SR leukemia
HOP-62 NSCLC = system: HOP-62 NSCLC
BT-549 breast = system: BT-549 breast
LOX IMVI melanoma = system: LOX IMVI melanoma
NCI-H522 lung = system: NCI-H522 lung
COLO 205 colon = system: COLO 205 colon
IGROV1 ovarian = system: IGROV1 ovarian
OVCAR-8 ovarian = system: OVCAR-8 ovarian
KM12 colon = system: KM12 colon
OVCAR-4 ovarian = system: OVCAR-4 ovarian
MCF7 breast = system: MCF7 breast
OVCAR-5 ovarian = system: OVCAR-5 ovarian
MOLT-4 leukemia = system: MOLT-4 leukemia
DU-145 prostate = system: DU-145 prostate
SN12C renal = system: SN12C renal
HCC-2998 colon = system: HCC-2998 colon
SK-MEL-5 melanoma = system: SK-MEL-5 melanoma
A498 renal = system: A498 renal

COc1cc(NC(=O)c2cc(OC)c3ccn(C)c3c2)cc2c1C[C@]1(C)CC[C@@H](O)C(C)(C)[C@H]1O2
GI50 (HS 578T breast): 2330 nM
TGI (HS 578T breast): 9.34 µM
GI50 (NCI-H226 lung): 26.5 µM
TGI (NCI-H226 lung): > 100 µM
GI50 (U251 CNS): 4.05 µM
TGI (U251 CNS): > 100 µM
GI50 (HCT-116 colon): 4.02 µM
TGI (HCT-116 colon): > 100 µM
GI50 (HCT-15 colon): 5.13 µM
TGI (HCT-15 colon): > 100 µM
GI50 (SF-295 CNS): 1010 nM
TGI (SF-295 CNS): 2950 nM
GI50 (NCI/ADR-RES ovarian): 29.3 µM
TGI (NCI/ADR-RES ovarian): > 100 µM
GI50 (SNB-19 CNS): 25.3 µM
TGI (SNB-19 CNS): > 100 µM
GI50 (SK-MEL-28 melanoma): 5.29 µM
TGI (SK-MEL-28 melanoma): > 100 µM
GI50 (OVCAR-3 ovarian): 12.6 µM
TGI (OVCAR-3 ovarian): > 100 µM
GI50 (SW-620 colon): 11.2 µM
TGI (SW-620 colon): > 100 µM
GI50 (CCRF-CEM leukemia): 3.75 µM
TGI (CCRF-CEM leukemia): > 100 µM
GI50 (NCI-H23 lung): 17.3 µM
TGI (NCI-H23 lung): > 100 µM
GI50 (UACC-257 melanoma): 7.6 µM
TGI (UACC-257 melanoma): > 100 µM
GI50 (EKVX NSCLC): 11.3 µM
TGI (EKVX NSCLC): > 100 µM
GI50 (SK-OV-3 ovarian): 6.41 µM
TGI (SK-OV-3 ovarian): > 100 µM
GI50 (RPMI-8226 leukemia): 1350 nM
TGI (RPMI-8226 leukemia): 6.9 µM
GI50 (HL-60(TB) leukemia): 3.49 µM
TGI (HL-60(TB) leukemia): 14.7 µM
GI50 (ACHN renal): 5.31 µM
TGI (ACHN renal): > 100 µM
GI50 (MALME-3M melanoma): 6.22 µM
TGI (MALME-3M melanoma): 70.5 µM
GI50 (K-562 leukemia): 3.82 µM
TGI (K-562 leukemia): 39.3 µM
GI50 (HT29 colon): 7.24 µM
TGI (HT29 colon): > 100 µM
GI50 (UACC-62 melanoma): 4.31 µM
TGI (UACC-62 melanoma): 49.6 µM
GI50 (A549 NSCLC): 10.3 µM
TGI (A549 NSCLC): > 100 µM
GI50 (786-0 renal): 1290 nM
TGI (786-0 renal): 4.08 µM
GI50 (MDA-MB-231 breast): 7.73 µM
TGI (MDA-MB-231 breast): 41.8 µM
GI50 (SNB-75 CNS): 1890 nM
TGI (SNB-75 CNS): 40.8 µM
GI50 (HOP-92 NSCLC): 4.11 µM
TGI (HOP-92 NSCLC): 32.3 µM
GI50 (RXF 393 renal): 759 nM
TGI (RXF 393 renal): 4.28 µM
GI50 (MDA-MB-435): 9.08 µM
TGI (MDA-MB-435): 43.6 µM
GI50 (SF-268 CNS): 9.09 µM
TGI (SF-268 CNS): > 100 µM
GI50 (SF-539 CNS): 1370 nM
TGI (SF-539 CNS): 18.8 µM
GI50 (TK-10 renal): 35.9 µM
TGI (TK-10 renal): > 100 µM
GI50 (T-47D breast): 10.3 µM
TGI (T-47D breast): > 100 µM
GI50 (SK-MEL-2 melanoma): 6.1 µM
TGI (SK-MEL-2 melanoma): 64.6 µM
GI50 (NCI-H460 lung): 5.24 µM
TGI (NCI-H460 lung): > 100 µM
GI50 (PC-3 prostate): 6.17 µM
TGI (PC-3 prostate): > 100 µM
GI50 (M14 melanoma): 2910 nM
TGI (M14 melanoma): 14 µM
GI50 (UO-31 renal): 2460 nM
TGI (UO-31 renal): 5.78 µM
GI50 (SR leukemia): 2960 nM
TGI (SR leukemia): > 100 µM
GI50 (HOP-62 NSCLC): 8.78 µM
TGI (HOP-62 NSCLC): > 100 µM
GI50 (BT-549 breast): 2980 nM
TGI (BT-549 breast): > 100 µM
GI50 (LOX IMVI melanoma): 4.08 µM
TGI (LOX IMVI melanoma): 19 µM
GI50 (NCI-H522 lung): 20.6 µM
TGI (NCI-H522 lung): > 100 µM
GI50 (COLO 205 colon): 6.12 µM
TGI (COLO 205 colon): 51.5 µM
GI50 (IGROV1 ovarian): 21.2 µM
TGI (IGROV1 ovarian): > 100 µM
GI50 (OVCAR-8 ovarian): 26 µM
TGI (OVCAR-8 ovarian): > 100 µM
GI50 (KM12 colon): 9.92 µM
TGI (KM12 colon): > 100 µM
GI50 (OVCAR-4 ovarian): 37.6 µM
TGI (OVCAR-4 ovarian): > 100 µM
GI50 (MCF7 breast): 4.68 µM
TGI (MCF7 breast): 65.9 µM
GI50 (OVCAR-5 ovarian): 27.3 µM
TGI (OVCAR-5 ovarian): > 100 µM
GI50 (MOLT-4 leukemia): 2980 nM
TGI (MOLT-4 leukemia): 15 µM
GI50 (DU-145 prostate): 9.08 µM
TGI (DU-145 prostate): > 100 µM
GI50 (SN12C renal): 27.9 µM
TGI (SN12C renal): > 100 µM
GI50 (HCC-2998 colon): 13.4 µM
TGI (HCC-2998 colon): > 100 µM
GI50 (SK-MEL-5 melanoma): 2870 nM
TGI (SK-MEL-5 melanoma): 9.08 µM
GI50 (A498 renal): 2850 nM
TGI (A498 renal): 7.15 µM
